What was measured:
[1] = test system: male and female Wistar rats; test: Experiment 2: chronic treatment of male and female rats, 5-6 weeks; format: in vivo, rat; details: for Food intake: n = 5
Protocol: Twenty-five male and 25 female Wistar rats, 7-8 weeks of age, were randomly assigned to groups of five animals, respectively, for treatment with vehicle only (V), estradiol (E), (±)-Z-BDDA, (+)-Z-BDDA, or (−)-Z-BDDA. Each animal in group V received a daily 0.1 cc injection of a 10% ethanol-90% olive oil solution; the other treatments received their respective compound as a daily 0.1 cc injection, e.g., 2.5 μg of compound/g of body weight, in a 10% ethanol-90% olive oil solution. A temperature of 21° C. and an artificial 12-h light-dark cycle were maintained in the animal room. All animals were maintained on standard chow in powdered form, the males for five weeks and the females for six weeks, then sacrificed after an overnight fast under i.p. pentobarbital anesthesia (50 mg/kg). Animal weight and food intake were measured weekly during the study and subsequent FER values were determined. During sacrifice, blood was collected (via cardiac puncture) for glucose, luteinizing hormone, prolactin and testosterone measurements. The amounts of luteinizing hormone, prolactin and testosterone were measured to help elucidate the target tissue of the respective compounds in male and female rats. Immediately following sacrifice the fat pads and reproductive organs were removed and weighed.
Experiments 1 and 2 employed a randomized design. All data were analyzed by one-way analysis of variance (ANOVA,)and post-hoc comparisons were made with Tukey pairwise comparisons test. Significance was confirmed at p≦0.05 (SYSTAT 7.0, SPSS INC., 1997), and all values are reported as means±standard error of the mean.

[2] = test system: primary porcine granulosa cells; test: In situ apoptosis assay in primary porcine granulosa cells; format: cell-based; details: 24 hr treatment, 0.1, 1 and 10 μM combined, serum-free MEM; controls 63.4% / 68.4%
Protocol: Porcine ovaries were obtained from local packing plants and transported to the laboratory on ice-cold Hank's balanced salt solution (HBSS). Each of the follicles was aspirated with an insulin syringe, and the follicular fluid was centrifuged at 3000 rpm and 4° C. for 15 min. The supernatant was poured off and the cells were washed in 5 mls of cold HBSS and centrifuged for another 10 min. The cells were again resuspended in HBSS, and the number of viable cells counted under the microscope using a hematocytometer. Once the number of cells was determined, the cells were centrifuged again for 10 min. and resuspended in the appropriate volume of Eagle's minimum essential media (MEM) containing 10% fetal bovine serum (FBS) and antibiotic/antimycotics. The cells were plated at 250,000 per well in 8 chamber microscope slides (Nunc, Naperville, Ill.) which were pre-treated with poly-L-lysine for 10 min. The slides were incubated at 5% CO2/95% air at 37° C. Approximately 12 hours later, the medium was removed by vacuum and replaced with pre-warmed, serum-free MEM. Cells were then treated for 2-3 hrs with MEM only to wash out any estrogen effects from the serum (Winters et al. (1994) Biol. Reprod. 50 (Suppl. 1):113; Suttner et al. (1998) Biol. Reprod. 59 (Suppl.): (Accepted for publication). Following serum-free MEM treatment, cells were treated for 24 hr with (+) or (−) enantiomers of Z-BDDA or estradiol at 0. 1, 1, and 10 μM, or EtOH vehicle control in serum-free MEM. Cells were subsequently processed using an in situ apoptosis assay kit (Apotag-Plus In Situ Apoptosis Kit-Peroxidase, Edition 1.1., Oncor, Gaithersburg, Md., 1995) to study ovarian apoptosis (Suttner et al., 1998). The slides were washed in two changes of PBS for 5 min each, and then quenched in 2% hydrogen peroxide in methanol for 5 min. at room temperature. After pre-treatment with an equilibration buffer, 13 ul of Terminal deoxynucleotidyl Transferase (TdT) diluted with reaction buffer and distilled water were added, and the slides were incubated for 1 h at 37° C. in a humidified chamber. After this 1 h period, the slides were put in pre-warmed stop wash buffer in the incubator for 30 min to stop the reaction. Next, the slides were washed in three changes of PBS for 5 min. each, and the anti-digoxigenin peroxidase was placed on the slides for 30 min. in a humidified chamber at room temperature. […] The degree of apoptosis for the calorimetric apoptosis assay was quantified microscopically using an image analysis system (Optimas 5.23, Optimas Users Guide, 5th Edition, Redmond, Wash.). Ten measurements (captured images) were taken for each concentration based on a pre-determined grid. […] Percentage area of each color was then quantitated using the image analysis system. […]

[3] = test system: male Sprague-Dawley rats; test: Example 4: effects on prostate and testis of male rats, 6 weeks; format: in vivo, rat; details: for Prostate Weight as % Body Weight / Seminal Vesicle Weight as % Body Weight / Testis Weight as % Body Weight / Body Weight (g): 0.1 ug/g of body weight once a day, mean ± SEM; for Body Weight (g): n = 10
Protocol: Sixty male Sprague-Dawley rats, 7-8 weeks of age, were randomly assigned to groups of ten animals. Each group was randomly assigned to one of six treatments: Vehicle control (C), Estradiol-17β(E), (−)-Z-BDDA, (+)-Z-BDDA, (−)-HAA, and (+)-HAA. The compounds were all administered at a dose of 0.1 μg/g of body weight in 0.1 cc once a day for 6 weeks. The estrogenic compounds were dissolved in 10% ethanol and 90% olive oil vehicle. A temperature of 21° C. and an artificial 12 h light-dark cycle were maintained in the animal room. All animals were maintained on standard chow in powdered form for six weeks, and then sacrificed after an overnight fast under i.p. pentobarbitol anesthesia (50 mg/kg). Animal weight was measured weekly during the study. During sacrifice, blood was collected via cardiac puncture. Immediately following sacrifice, the fat pads, livers, pituitaries, testes, seminal vesicles, and prostate were removed and weighed, and snap frozen in liquid nitrogen. Prostates and one testis from 2-3 animals in each treatment group were fixed in 10% formalin for histological examination. These tissues were fixed overnight, blocked in paraffin, sectioned at 4 μm, stained with Hematoxylin and Eodsin, cover slipped, and examined microscopically. Quantitative results were subjected to an analysis of variance and means separated by a Tukey's Test (SYSTAT, Chicago, Ill.).

[4] = test system: dialyzed LDL; test: Oxidized LDL lag time assay (antioxidant capacity); parameters: species or system human; details: 3 μM Cu2SO4, drugs at 10^−4, 10^−5, 10^−6, and 10^−7 M
Protocol: Experiments were carried out on dialyzed LDL collected from four fasted persons. The LDL was used within 10 days of dialysis. The oxidizing agent was 3 μM […]; phosphate buffered saline was used to control pH, and all drugs were dissolved in ethanol; final concentrations of each drug in the assays were 10^−4, 10^−5, 10^−6, and 10^−7 M. The combined results are shown in FIG. 6.

[5] = test system: rats, cats, chicks, and guinea pigs; details: animals including rats; cited from earlier work
[6] = test system: mice; details: cited from earlier work
[7] = test system: MCF-7 human mammary cancer cell line; details: human MCF-7 cells in culture; cited from earlier work
[8] = female rats, 2.5 ug/g of body weight daily, six weeks, mean ± SEM
[9] = male rats, 2.5 ug/g of body weight daily, five weeks, mean ± SEM

| Compound | testis histology: spermatogenesis ([3]; 0.1 μg/g daily, FIGS. 5a-f) | Prostate Weight as % Body Weight [3] | Seminal Vesicle Weight as % Body Weight [3] | Testis Weight as % Body Weight [3] | Body Weight (g) [3] | antioxidant activity (shift in lag time of LDL oxidation) [4] | other results |
| --- | --- | --- | --- | --- | --- | --- | --- |
| CC[C@@H]1c2ccc3cc(O)ccc3c2CC[C@]1(C)C(=O)O [(−)-Z-BDDA, (−)-Z-bisdehydrodoisynolic acid] | halted primarily at the secondary spermatocyte phase | 0.08 ± 0.00^1 % Body Weight | 0.06 ± 0.02^4 % Body Weight | 0.31 ± 0.02^1,4 % Body Weight | 166.5 ± 4.5^1,2,4 g | significant antioxidant activity | Uterus/testis weight (g) ([1]; female rats (uterus), 2.5 ug/g of body weight daily, six weeks, mean ± SEM): 1.44 ± 0.34^2,3,4 g; Blood glucose [1, 8]: 95.00 ± 8.33 mg/dL; FER (food efficiency ratio) [1, 8]: 0.011 ± 0.005^1,2; Food intake [1, 8]: 675.2 ± 37.9 g; weight gain (percent weight change) ([1]; female rats, both experiments (FIGS. 2 and 3), 2.5 μg/g daily): repress weight gain slightly more than did (+)-Z-BDDA and E2; Uterus/testis weight (g) ([1]; male rats (testis), 2.5 ug/g of body weight daily, five weeks, mean ± SEM): 0.57 ± 0.04^1 g; testosterone ([1]; male rats, 2.5 μg/g daily, compared to the vehicle): less pronounced; Blood glucose (mg/dl) [1, 9]: 88.00 ± 2.00^1 mg/dl; FER (food efficiency ratio) [1, 9]: −0.01 ± 0.01^1; Prostate weight (g) [1, 9]: 0.03 ± 0.10^1 g; Food intake [1, 9]: 650.0 ± 54.3 g; mean apoptosis (% area) [2]: 26.1%; testis histology: Leydig cells ([3]; 0.1 μg/g daily, FIGS. 5a-f): severely atrophied Leydig cells, the smallest of all the treatments |
| CC[C@H](c1ccc2cc(OC)ccc2c1)C(C)(C)C(=O)O [compound 3] | – | – | – | – | – | – | estrogenic activity (estrogenicity) in animals [5]: one-fifth the estrogenicity of 2 |
| O=c1c(-c2ccc(O)cc2)coc2cc(O)cc(O)c12 [genistein] | – | – | – | – | – | Less antioxidant activity | – |
| O=c1c(-c2ccc(O)cc2)coc2cc(O)ccc12 [daidzein] | – | – | – | – | – | Less antioxidant activity | – |
| CC[C@H](c1ccc2cc(O)ccc2c1)C(C)(C)C(=O)O [(+)-HAA] | halted at round spermatid, with a few spermatogenic cells showing elongation (acrosome phase) | 0.08 ± 0.01^1 % Body Weight | 0.10 ± 0.04 % Body Weight | 0.38 ± 0.02^1,4 % Body Weight | 196.2 ± 5.2^1,4,5 g | – | effect on sulfate incorporation and weight gain [6]: significant depression of sulfate incorporation without the corresponding effects on weight gain |
| CC[C@@H](c1ccc2cc(O)ccc2c1)C(C)(C)C(=O)O [(−)-HAA] | halted at round spermatid, with a few reaching cap phase | 0.08 ± 0.01^1 % Body Weight | 0.04 ± 0.00^1,4 % Body Weight | 0.31 ± 0.01^1,4 % Body Weight | 180.9 ± 4.5^1,2,4 g | – | prostate histology (alveoli) ([3]; 0.1 μg/g daily, FIGS. 4a-f): largest degree of atrophy; MCF-7 cell proliferation (estrogenicity) [7]: highly effective; activity in inhibition of weight gain and sulfate incorporation, relative to compound 2 [6]: 100 fold |

Source: patent US6608111B1, “Method for treating or preventing prostatic conditions” (Southern Illinois University Office of Research, …, priority 1998, dated 2003)
